Patent US20240285552A1 (priority 2020, published 2024)
Counter-ions that a name gives are not always drawn. Like-named read-outs stand apart in the source and are kept apart here.

Key:
[1] = system: SARS-CoV-2 spike (B.1.617.2 Delta Variant) pseudotyped lentivirus; test: microbe, parasite or virus in culture; type: cell-based; settings: for inhibition at 10 µM: HEK293, 10 μM
[2] = system: B.1.617.2 Delta Variant of SARS-CoV-2; test: microbe, parasite or virus in culture; type: cell-based; settings: for IC50: read-out: IC 50 against B.1.617.2 Delta Variant Infection-Induced CPE
[3] = Lentivirus, read-out: Percent (%) Inhibition of Pseudo virus Entry in HEK293 Kidney Cells, B.1.617.2 Delta Variant
[4] = Severe acute respiratory syndrome coronavirus 2, Vero C1008, Vero E6

Row | Structure (SMILES) | Percent (%) Inhibition of Pseudo virus Entry in HEK293 Kidney Cells, B.1.617.2 Delta Variant ([1]; 50 μM, hydrochloride) | Percent (%) Inhibition of Pseudo virus Entry in HEK293 Kidney Cells, B.1.617.2 Delta Variant ([1]; 100 μM, hydrochloride) | inhibition at 10 µM [1, 3] | inhibition at 25 µM ([1]; Lentivirus, HEK293, 25 μM, read-out: Percent (%) Inhibition of Pseudo virus Entry in HEK293 Kidney Cells, B.1.617.2 Delta Variant) | inhibition at 50 µM ([1]; Lentivirus, HEK293, 50 μM, read-out: Percent (%) Inhibition of Pseudo virus Entry in HEK293 Kidney Cells, B.1.617.2 Delta Variant) | inhibition at 100 µM ([1]; Lentivirus, HEK293, 100 μM, read-out: Percent (%) Inhibition of Pseudo virus Entry in HEK293 Kidney Cells, B.1.617.2 Delta Variant) | Conc. at Max. % Inhibition [2] | Max. Inhibition [2] | IC50 [2, 4] | IC50 ([2]; Vero E6, hydrochloride) | IC50 ([2]; Vero E6) | Percent (%) Inhibition of Pseudo virus Entry in HEK293 Kidney Cells, B.1.617.2 Delta Variant ([1]; 100 μM)
1 | Nc1c(Br)cc(Br)cc1CN[C@H]1CC[C@H](O)CC1 [AMB, 4-[(2-amino-3,5-dibromophenyl)methylamino]cyclohexan-1-ol; hydrochloride] | 48% | 95% | 6% | 19% | 50% | 100% | 150 µM | 88.38% | ~98 µM | 98.2 µM | – | –
2 | CCOC(=O)[C@H]1O[C@@H]1C(=O)N[C@@H](CC(C)C)C(=O)NCCC(C)C [Aloxistatin] | – | – | – | – | – | – | 15 µM | 85.17% | 9.84 µM | – | 9.82 µM | –
3 | CN(Cc1cc(Br)cc(Br)c1N)C1CCCCC1 [BHH, Bromhexine hydrochloride] | – | – | ~10% | – | – | – | 18.75 µM | 74.57% | 17.7 µM | – | – | blocked viral entry completely
4 | CCN(CC)CCCC(C)Nc1ccnc2cc(Cl)ccc12 (stereo not drawn) [Chloroquine] | – | – | – | – | – | – | 15 µM | – | 8.3 µM | – | – | –
5 | CC(C)(C)[C@H](NC(=O)C(F)(F)F)C(=O)N1C[C@H]2[C@@H]([C@H]1C(=O)N[C@H](C#N)C[C@@H]1CCNC1=O)C2(C)C [PF-07321332] | – | – | – | – | – | – | 10 µM | 96.28% | – | – | 1.98 µM | –
6 | CCC(CC)COC(=O)[C@H](C)N[P@](=O)(OC[C@H]1O[C@@](C#N)(c2ccc3c(N)ncnn23)[C@H](O)[C@@H]1O)Oc1ccccc1 [Remdesivir] | – | – | – | – | – | – | 15 µM | 104.26% | 8.24 µM | – | – | –
